According to paper PMC10684410 (Clinical Pharmacokinetics, 2023):

Experiments:
[1] = Plasma paroxetine concentrations in the DDI study; assay type: in vivo, human (healthy subjects)
TAAR1 = conditions: in vitro receptor binding studies; result in words; cited from earlier work
[2] = cited from earlier work
[3] = 25 mg ulotaront + 20 mg QD paroxetine vs ulotaront alone, result in words

Row | Compound | AUC ([1]; human, plasma, oral, 20 mg) [ng·h/mL] | Cmax ([1]; human, plasma, oral, 20 mg) [ng/mL] | mean plasma trough concentration at steady-state ([1]; paroxetine 20 mg once daily from Day 5, Day 11) [ng/mL] | increase of SEP-363854 AUC∞ by coadministration of paroxetine (25 mg ulotaront + 20 mg QD paroxetine vs ulotaront alone) [%] | effect of paroxetine on SEP-363854 Cmax [3] | effect of paroxetine on SEP-363854 tmax [3] | effect of paroxetine on SEP-363854 to ulotaront AUClast ratio [3] | mean SEP-363854 to ulotaront AUClast ratio (with or without paroxetine coadministration) | binding to TAAR1 (TAAR1) | metabolite abundance in humans ([2]; minor metabolite in humans) | effective half-life for the metabolite ([2]; ref unpublished data)
1 | Fc1ccc([C@@H]2CCNC[C@H]2COc2ccc3c(c2)OCO3)cc1 [Paroxetine] | 647 | 37.3 | 19.3 | – | – | – | – | – | – | – | –
2 | NCC1OCCc2ccsc21 (centres unmarked) [SEP-363854] | – | – | – | 32 | no effect | no effect | no effect | about 0.02 | does bind to TAAR1 | < 2 % of total | approximately 6 h
